{"source": "patent US10314806B2", "about": "(SICHUAN JIUZHANG BIOLOGICAL SCIENCE AND TECHNOLOGY CO., LTD., priority 2014, dated 2019)", "test_system": "chemical liver injury (rat alcoholic fatty liver model)", "assay": "Protective effect on chemical liver injury (rat alcoholic fatty liver model)", "format": "in vivo, rats", "conditions": "30 days; for GSH / SOD / MDA: liver homogenate; for AST / ALT: serum", "description": "Experimental grouping and dose design: Female SD rats were randomly divided to groups, 10 rats for each group, […], 70 mg·kg^−1, 85 mg·kg^−1, 100 mg·kg^−1, 120 mg·kg^−1, 140 mg·kg^−1, 160 mg·kg^−1, 180 mg·kg^−1, […], together with a negative control group and 50% ethanol model control group. Liver injury model was induced by ethanol (analytical pure).\nDetermination of ALT, AST, TG in serum of rats; Determination of SOD, MDA, reduced glutathione (GSH) in liver homogenate.\nStatistics of experimental data: Statistical analysis of experimental data was performed using software package of SPSS 19.0 for windows.", "data": [{"compound": "O=C(/C=C/c1ccc(O)c(O)c1)O[C@@H]1C[C@](O)(C(=O)O)C[C@@H](O)[C@H]1O", "note": "[Chlorogenic acid of the present invention]", "values": [{"measurement": "GSH", "setting": "10 mg·kg^−1 intragastric", "value": "13.02 ± 1.23", "unit": "mg/g"}, {"measurement": "SOD", "setting": "10 mg·kg^−1 intragastric", "value": "28.12 ± 3.25", "unit": "nmol/mg"}, {"measurement": "AST", "setting": "10 mg·kg^−1 intragastric", "value": "189.54 ± 4.87", "unit": "U/L"}, {"measurement": "GSH", "setting": "20 mg·kg^−1 intragastric", "value": "18.98 ± 2.14", "unit": "mg/g"}, {"measurement": "MDA", "setting": "20 mg·kg^−1 intragastric", "value": "5.15 ± 0.21", "unit": "U/mg"}, {"measurement": "SOD", "setting": "20 mg·kg^−1 intragastric", "value": "36.45 ± 2.47", "unit": "nmol/mg"}, {"measurement": "AST", "setting": "20 mg·kg^−1 intragastric", "value": "178.54 ± 6.15", "unit": "U/L"}, {"measurement": "GSH", "setting": "35 mg·kg^−1 intragastric", "value": "19.21 ± 1.45", "unit": "mg/g"}, {"measurement": "MDA", "setting": "35 mg·kg^−1 intragastric", "value": "5.14 ± 0.47", "unit": "U/mg"}, {"measurement": "SOD", "setting": "35 mg·kg^−1 intragastric", "value": "37.27 ± 3.25", "unit": "nmol/mg"}, {"measurement": "AST", "setting": "35 mg·kg^−1 intragastric", "value": "168.54 ± 4.31", "unit": "U/L"}, {"measurement": "GSH", "setting": "50 mg·kg^−1 intragastric", "value": "22.14 ± 2.41", "unit": "mg/g"}, {"measurement": "MDA", "setting": "50 mg·kg^−1 intragastric", "value": "4.12 ± 0.65", "unit": "U/mg"}, {"measurement": "SOD", "setting": "50 mg·kg^−1 intragastric", "value": "38.24 ± 2.75", "unit": "nmol/mg"}, {"measurement": "ALT", "setting": "50 mg·kg^−1 intragastric", "value": "40.12 ± 3.15", "unit": "U/L"}, {"measurement": "AST", "setting": "50 mg·kg^−1 intragastric", "value": "139.21 ± 5.14", "unit": "U/L"}, {"measurement": "GSH", "setting": "70 mg·kg^−1 intragastric", "value": "22.87 ± 2.47", "unit": "mg/g"}, {"measurement": "MDA", "setting": "70 mg·kg^−1 intragastric", "value": "4.56 ± 0.78", "unit": "U/mg"}, {"measurement": "SOD", "setting": "70 mg·kg^−1 intragastric", "value": "38.75 ± 3.21", "unit": "nmol/mg"}, {"measurement": "ALT", "setting": "70 mg·kg^−1 intragastric", "value": "38.48 ± 2.47", "unit": "U/L"}, {"measurement": "AST", "setting": "70 mg·kg^−1 intragastric", "value": "127.54 ± 6.54", "unit": "U/L"}, {"measurement": "GSH", "setting": "85 mg·kg^−1 intragastric", "value": "23.01 ± 1.58", "unit": "mg/g"}, {"measurement": "MDA", "setting": "85 mg·kg^−1 intragastric", "value": "4.32 ± 0.46", "unit": "U/mg"}, {"measurement": "SOD", "setting": "85 mg·kg^−1 intragastric", "value": "40.14 ± 6.12", "unit": "nmol/mg"}, {"measurement": "ALT", "setting": "85 mg·kg^−1 intragastric", "value": "35.47 ± 2.46", "unit": "U/L"}, {"measurement": "AST", "setting": "85 mg·kg^−1 intragastric", "value": "119.25 ± 6.89", "unit": "U/L"}, {"measurement": "GSH", "setting": "100 mg·kg^−1 intragastric", "value": "23.48 ± 1.78", "unit": "mg/g"}, {"measurement": "MDA", "setting": "100 mg·kg^−1 intragastric", "value": "4.08 ± 0.85", "unit": "U/mg"}, {"measurement": "SOD", "setting": "100 mg·kg^−1 intragastric", "value": "41.56 ± 4.32", "unit": "nmol/mg"}, {"measurement": "ALT", "setting": "100 mg·kg^−1 intragastric", "value": "33.14 ± 1.89", "unit": "U/L"}, {"measurement": "AST", "setting": "100 mg·kg^−1 intragastric", "value": "126.89 ± 4.21", "unit": "U/L"}, {"measurement": "GSH", "setting": "120 mg·kg^−1 intragastric", "value": "23.98 ± 2.14", "unit": "mg/g"}, {"measurement": "MDA", "setting": "120 mg·kg^−1 intragastric", "value": "3.89 ± 0.42", "unit": "U/mg"}, {"measurement": "SOD", "setting": "120 mg·kg^−1 intragastric", "value": "42.87 ± 3.15", "unit": "nmol/mg"}, {"measurement": "ALT", "setting": "120 mg·kg^−1 intragastric", "value": "39.85 ± 2.41", "unit": "U/L"}, {"measurement": "AST", "setting": "120 mg·kg^−1 intragastric", "value": "138.84 ± 5.15", "unit": "U/L"}, {"measurement": "GSH", "setting": "140 mg·kg^−1 intragastric", "value": "24.35 ± 1.58", "unit": "mg/g"}, {"measurement": "MDA", "setting": "140 mg·kg^−1 intragastric", "value": "3.57 ± 0.64", "unit": "U/mg"}, {"measurement": "SOD", "setting": "140 mg·kg^−1 intragastric", "value": "44.78 ± 2.31", "unit": "nmol/mg"}, {"measurement": "ALT", "setting": "140 mg·kg^−1 intragastric", "value": "40.08 ± 2.78", "unit": "U/L"}, {"measurement": "AST", "setting": "140 mg·kg^−1 intragastric", "value": "140.54 ± 6.12", "unit": "U/L"}, {"measurement": "GSH", "setting": "160 mg·kg^−1 intragastric", "value": "20.01 ± 1.47", "unit": "mg/g"}, {"measurement": "MDA", "setting": "160 mg·kg^−1 intragastric", "value": "4.05 ± 0.25", "unit": "U/mg"}, {"measurement": "SOD", "setting": "160 mg·kg^−1 intragastric", "value": "38.56 ± 2.45", "unit": "nmol/mg"}, {"measurement": "AST", "setting": "160 mg·kg^−1 intragastric", "value": "157.98 ± 5.27", "unit": "U/L"}, {"measurement": "GSH", "setting": "180 mg·kg^−1 intragastric", "value": "19.87 ± 2.84", "unit": "mg/g"}, {"measurement": "MDA", "setting": "180 mg·kg^−1 intragastric", "value": "4.98 ± 0.87", "unit": "U/mg"}, {"measurement": "SOD", "setting": "180 mg·kg^−1 intragastric", "value": "37.25 ± 4.27", "unit": "nmol/mg"}, {"measurement": "AST", "setting": "180 mg·kg^−1 intragastric", "value": "168.12 ± 4.89", "unit": "U/L"}, {"measurement": "GSH", "setting": "200 mg·kg^−1 intragastric", "value": "19.01 ± 1.58", "unit": "mg/g"}, {"measurement": "MDA", "setting": "200 mg·kg^−1 intragastric", "value": "5.45 ± 0.24", "unit": "U/mg"}]}]}
